Consider 20 molecules from US20080194024A1, “Culture of Non-Embryonic Cells at High Cell Density” (priority 2005, published 2008).

Like-named read-outs stand apart in the source and are kept apart here. Where only a bound is given, the exact number is not on record here.

One test relates to GSK-3. The following applies: study cited did not specify which isoform(s) was tested; value marked a: L. Meijer et al., unpublished; read-out: IC50 GSK-α and GSK-3β, isoform not specified; cited from earlier work.
For a further test, the system named is CDK1-cyclin B complex. The settings on record: cited from earlier work; for IC50: values marked a: L. Meijer et al., unpublished.
The next test relates to CDK2 and CDK5. The following applies: printed in the CDK1-cyclin B column with note (CDK2 and CDK5); cited from earlier work.
Test [1] relates to Murine MAPCs. Description: MAPC culture with BIO, morphology (clustering). In kind it is cell-based, mouse. The settings on record: 0.1-2 microM BIO; from 4 days after treatment; at both cell densities.
Test [2] deals with Murine MAPCs. The test is described as follows: Quantitative RT-PCR of MAPCs treated with BIO. In kind it is cell-based, mouse.
Test [3] deals with Murine MAPCs. The test is described as follows: Immunohistochemistry of MAPCs treated with BIO. Format: cell-based, mouse.
Test [4] deals with mouse embryonic stem (ES) cells. The settings on record: substitutes for feeder cultures or exogenous cytokines; expression of Oct-3a, Rex-1 and Nanog; cited from earlier work.
The test system of test [5] is human embryonic stem (ES) cells. The following applies: substitutes for feeder cultures or exogenous cytokines; expression of Oct-3a, Rex-1 and Nanog; cited from earlier work.
In test [6] the test system is GSK-3 (α/β) mixture of isoforms. The following applies: cited from earlier work.
A further test deals with GSK-3β (Homo sapiens, UniProt P49841).
GSK-3β, sequence (P49841 whole entry, species assumed): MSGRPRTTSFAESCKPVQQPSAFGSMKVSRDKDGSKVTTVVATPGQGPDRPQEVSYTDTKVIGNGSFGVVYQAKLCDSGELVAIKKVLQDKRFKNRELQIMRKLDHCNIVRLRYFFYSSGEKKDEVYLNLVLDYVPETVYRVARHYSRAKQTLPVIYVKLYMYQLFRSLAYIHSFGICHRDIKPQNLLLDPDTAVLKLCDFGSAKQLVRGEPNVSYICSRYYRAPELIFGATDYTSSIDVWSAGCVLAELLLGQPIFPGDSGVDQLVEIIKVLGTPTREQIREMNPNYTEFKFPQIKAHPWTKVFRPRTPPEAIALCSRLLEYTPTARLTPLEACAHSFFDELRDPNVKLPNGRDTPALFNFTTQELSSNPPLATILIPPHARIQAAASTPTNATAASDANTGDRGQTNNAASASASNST
Test [7] has as its system mouse mesodermal stem cell line differentiated into a myoblastic lineage. The following applies: Chen, S., et al. (2003); cited from earlier work.
A further test addresses GSK-3α (Homo sapiens, UniProt P49840). The following applies: cited from earlier work.
[8] abbreviates: MAPCs maintained at low density.
Where [9] appears, read: high concentration of BIO, MAPCs maintained at low density.
Setting [10] is: mixture of isoforms tested, values marked a: L. Meijer et al., unpublished.

GSK-3α, sequence (P49840 whole entry, species assumed): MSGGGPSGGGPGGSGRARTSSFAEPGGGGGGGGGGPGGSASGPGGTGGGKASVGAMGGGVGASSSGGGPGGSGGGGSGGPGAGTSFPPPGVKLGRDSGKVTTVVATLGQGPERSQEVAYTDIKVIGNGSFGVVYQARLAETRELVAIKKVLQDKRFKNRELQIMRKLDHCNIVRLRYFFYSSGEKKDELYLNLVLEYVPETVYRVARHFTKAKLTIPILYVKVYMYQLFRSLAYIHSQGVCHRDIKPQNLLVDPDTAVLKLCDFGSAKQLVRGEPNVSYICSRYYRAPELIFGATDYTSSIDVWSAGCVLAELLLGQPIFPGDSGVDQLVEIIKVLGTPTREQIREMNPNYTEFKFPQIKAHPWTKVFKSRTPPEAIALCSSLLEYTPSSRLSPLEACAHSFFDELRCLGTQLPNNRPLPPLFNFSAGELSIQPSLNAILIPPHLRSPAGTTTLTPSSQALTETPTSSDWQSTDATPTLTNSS

As for `CC(=O)ON=C1C(=C2C(=O)Nc3cc(Br)ccc32)Nc2ccccc21` [6-Bromoindirubin-3′-acetoxime], the IC50 in the test with GSK-3 was 10 nM; in the test with CDK1-cyclin B complex it was 63000 nM.

`COc1ccc(CNC(=O)Nc2ncc([N+](=O)[O-])s2)cc1` [ARA014418]: in the test on CDK2 and CDK5, the IC50 is more than 100000 nM.

As to `CCCCc1c(-c2ccc(O)cc2)[nH]c2nccnc12` [Aloisine A], in the test with GSK-3, the IC50 was […].

Take `O=C1Cc2c([nH]c3ccc(Br)cc23)-c2ncccc2N1` [Azakenpaullone]: the IC50 in the test with CDK1-cyclin B complex is 2000 nM.

Consider `O=C1Nc2cc(Br)ccc2/C1=C1/Nc2ccccc2/C1=N\O` [BIO, 6-bromoindirubin-3′-oxime], for which the “clustering of MAPC” value in the test on Murine MAPCs [1] was “dose-dependent clustering”. For the same molecule, in the test on Murine MAPCs [2] (setting [8]), the “Oct-4 mRNA levels” value was “decreased in a BIO dose-dependent manner” and the “Rex-1 mRNA levels” value is listed as “decreased in a BIO dose-dependent manner”. In the test with Murine MAPCs [2] (setting [9]), the AFP levels result is “higher levels of AFP” and the Sox1 levels entry is “higher levels”. Also, in the test with Murine MAPCs [2] (low concentration of BIO, MAPCs maintained at low density), the “endothelial specific genes (for example, vWF) levels” value is listed as “higher levels of endothelial specific genes”. The “UTF1 or E-Ras expression” value with Murine MAPCs [2] (mRNA, Q-RT-PCR) is listed as “did not affect”. For the same molecule, the “Oct-4, β-catenin and E-cadherin protein expression in large dense MAPC clusters” value with Murine MAPCs [3] (high density (ESC densities), 1 or 2 microM BIO) is reported as “very high levels”. Also, the “Oct-4, β-catenin and E-cadherin protein expression in clusters” value with Murine MAPCs [3] (low-density MAPCs, 2 microM BIO) was “highly expressed”. Also, the “maintenance of undifferentiated pluripotent state, mouse ES cells” value in [4] is “maintaining the ES cultures in an undifferentiated pluripotent state”. In [5], the “maintenance of undifferentiated pluripotent state, human ES cells” value was “maintaining the ES cultures in an undifferentiated pluripotent state”.

For the molecule `[Be+2]` [Beryllium], the IC50 in the test on GSK-3 is 6000 nM. The “Effect on CDK1-cyclin B complex” value in the test with CDK1-cyclin B complex is recorded as “Inhibits CDK1”.

In the case of `OCCCNc1cc(-c2ccnc(Nc3cccc(Cl)c3)n2)ccn1` [CGP60474], in the test with GSK-3, the half-inhibitory concentration (IC50) was 10 nM.

Regarding `CN1CCN(c2cnc(NCCNc3ccc([N+](=O)[O-])c(N)n3)nc2-c2ccc(Cl)cc2Cl)C(=O)C1` [CT20026], in test [6] (setting [10]), the IC50 is 4 nM.

With `CN1CC[C@H](c2c(O)cc(O)c3c(=O)cc(-c4ccccc4Cl)oc23)[C@H](O)C1` [Flavopiridol], the IC50 in the test with GSK-3 was 450 nM.

For `CN(C)CCCn1cc(C2=C(c3c[nH]c4ccccc34)C(=O)NC2=O)c2ccccc21` [GF109203x, bisindolyl-maleimide I], the IC50 on GSK-3β (β isoform tested; from Meijer, L. et al. (2004); read-out: IC50 GSK-3 (β); cited from earlier work) was 190 nM; with CDK1-cyclin B complex it was 2300 nM.

Consider `Cn1cc(C2=C(c3cn(CCCSC(=N)N)c4ccccc34)C(=O)NC2=O)c2ccccc21` [Ro318220, bisindolyl-maleimide IX], for which the IC50 at GSK-3β (read-out: IC50 GSK-3 (β); β isoform tested; from Meijer, L. et al. (2004); cited from earlier work) is 3 to 38 nM.

For `Cn1cc(C2=C(c3ccc(Cl)cc3Cl)C(=O)NC2=O)c2ccccc21` [SB216763], in the test with CDK1-cyclin B complex, the IC50 is 550 nM.

`O=C1NC(=O)C(c2ccccc2[N+](=O)[O-])=C1Nc1ccc(O)c(Cl)c1` [SB415286]: in the test on CDK1-cyclin B complex, the IC50 was 900 nM.

Take `COc1ccc2c(c1)/C(=C/c1cnc[nH]1)C(=O)N2` [SU9516]: the IC50 with GSK-3 was 330 nM.

On to `Cn1sc(=O)n(Cc2ccccc2)c1=O` [TDZD8], for which the IC50 in test [6] (setting [10]) is 7000 nM.

Consider `Nc1cccc(-c2cc3c(Oc4cccc(O)c4)ncnc3[nH]2)c1` [TWS119], for which the IC50 at GSK-3β (read-out: IC50 GSK-3 (β); cited from earlier work) is 30 nM.

Consider `[Zn]` [Zinc], for which, in the test with GSK-3, the IC50 was 15000 nM. For the same molecule, the “Effect on CDK1-cyclin B complex” value in the test on CDK1-cyclin B complex is “No effect”.

Consider `c1nc2nc(Nc3ccc(N4CCOCC4)cc3)nc(NC3CCCCC3)c2[nH]1` [reversine], for which the “effect on committed myoblast” value in test [7] was “de-differentiate”.

For Aloisine B, the IC50 is 750 nM in the test with GSK-3 and 850 nM with CDK1-cyclin B complex.

Consider CHIR98014, for which the figures for the IC50 (at GSK-3α; in test [6]; with CDK1-cyclin B complex) were 0.65 nM, 0.58 nM and 3700 nM, respectively.

As a reminder, the IC50 is the point on the concentration scale where inhibition reaches its midpoint.
